Results: publication PMC4411898, “Impact of kinesin Eg5 inhibition by 3,4-dihydropyrimidin-2(1H)-one derivatives on various breast cancer cell features” (BMC Cancer, 2015)
Like-named read-outs stand apart in the source and are kept apart here.

What was measured:
[1] = system: MCF-7 cells; assay: MTT cell viability assay, MCF-7; format: cell-based, human; details: for IC50: Homo sapiens, read-out: IC50 MCF-7
Procedure: (§1) Absorbance readings were measured by a spectrophotometer. Cell viability was normalized to control (vehicle only).

[2] = system: MDA-MB-231 cells; assay: MTT cell viability assay, MDA-MB-231; format: cell-based, human; details: for IC50: Homo sapiens, read-out: IC50 MDA-MB-231
Procedure: as §1

[3] = system: Fibroblasts (primary culture from healthy human dental pulp)
Procedure: MCF-7 cell line and primary culture of connective tissue cells were provided by the Laboratory of Morphology, University of Brasília (Brasília, BR). MDA-MB-231 cells were purchased from Rio de Janeiro Cell Bank (RJCB - Rio de Janeiro, BR). Cell line characterization and authentication was conducted by RJCB using short tandem repeat profiling. Primary culture cells were taken from healthy human dental pulp predominantly consisting of fibroblasts and were used as normal control cells. MCF-7 cells and fibroblasts were grown in complete DMEM and maintained at 37°C with 5% CO2. MDA-MB-231 cells were grown in Leibovitz L15 medium at 37°C without CO2. Culture media were supplemented with 10% fetal bovine serum and 25 μg/mL of gentamicin.
Cytotoxicity was determined using 3-(4,5-dimethylthiazol-2-yl)-2,5-diphenylterazolium bromide (MTT) according to the manufacturer’s instructions. Absorbance readings were measured by a spectrophotometer. Cell viability was normalized to control (vehicle only).

[4] = system: MCF-7 cells; assay: α-tubulin immunostaining, spindle formation; format: cell-based, human; details: for Monoastral Spindle (%) 24 h / Bipolar Spindle (%) 24 h / Bipolar Spindle (%) 48 h / Monoastral Spindle (%) 48 h: n = 300 dividing cells; for Monoastral Spindle (%) 24 h: monastrol 0.1 mM; for Bipolar Spindle (%) 24 h / Bipolar Spindle (%) 48 h / Monoastral Spindle (%) 48 h: concentrations as E14; for Bipolar Spindle (%) 48 h / Monoastral Spindle (%) 48 h: MCF-7, 48 h
Procedure: Aliquots of 7 × 10^4 MCF-7 cells were seeded onto 12 mm round glass coverslips placed in the base of each well of a 24-well plate. After adhesion, cells were treated for 24 and 48 h with the pre-selected compounds at their maximum non-cytotoxic concentrations to normal cells or incubated with culture medium only for the same duration (negative control). Cells were washed with PBS, fixed with 3.7% formaldehyde, permeabilized with 0.1% Triton X-100 and blocked in PBS supplemented with 1% skimmed milk, 2.5% bovine serum albumin (BSA) and 8% fetal bovine serum (FBS) at room temperature. Cells were incubated overnight with mouse anti-α-tubulin antibody (1:500) at 4°C, followed by incubation with a secondary antibody: Alexa Fluor 488 rabbit anti-mouse IgG (1:400), for 1 hour at 37°C. Nuclei were stained with 300 nM DAPI. The coverslips were mounted with ProLong Gold Antifade and specimens observed under a laser scanning confocal microscope.
Table S1. Quantification of monopolar spindles occurred as a result of treatment with DHPM derivatives. MCF-7 control cells or cells treated for 24 or 48 h with 4m (1 mM), […]
antibody. The percentage of dividing cells showing presence of monoastral and bipolar spinles formation determined (n = 300).
Experimental Group Monoastral Spindle (%) Bipolar Spindle (%)

[5] = system: MCF-7 cells; assay: Apoptosis and necrosis assay (Annexin-V/PI flow cytometry), MCF-7; format: cell-based, human; details: 72 h; 4m 1.0 mM, 4bt 0.8 mM, 4p 0.4 mM, 4bc 1.0 mM, 4x 0.8 mM
Procedure: (§2) For proliferation assays, cells were treated with IC50 concentrations of each compound. Adherent and floating cells were harvested at the same tube and pelleted by centrifugation at 300 g for 5 minutes and stained. Data acquisition of these two fractions put together was performed on a FACSCalibur flow cytometer using CellQuest software and analysed using the FloJo Software. Untreated control cells and DHPMs-treated for 72 h cell samples were stained with Annexin-V-FITC or Annexin-V-Alexa Fluor® 680 and propidium iodide according to the manufacturer’s instructions.

[6] = system: MDA-MB-231 cells; assay: Apoptosis and necrosis assay (Annexin-V/PI flow cytometry), MDA-MB-231; format: cell-based, human; details: 72 h; 4m 1.0 mM, 4bt 0.8 mM, 4p 0.4 mM, 4bc 1.0 mM, 4x 0.8 mM
Procedure: as §2

[7] = system: MCF-7 cells; assay: CD44+/CD24- expression analysis, MCF-7; format: cell-based, human; details: 24 h; for CD44-/CD24- subpopulation, MCF-7 (mean ± SEM): 4m 1.0 mM, 4bt 0.8 mM, 4p 0.4 mM, 4bc 1.0 mM, 4x 0.8 mM, monastrol 1.0 mM; for CD44+/CD24+ subpopulation, MCF-7 (mean ± SEM) / CD44-/CD24+ subpopulation, MCF-7 (mean ± SEM) / CD44+/CD24- subpopulation, MCF-7 (mean ± SEM): concentrations as E28; for CD44+/CD24- subpopulation, MCF-7 (mean ± SEM): control 0.38 ± 0.18
Procedure: (§3) For proliferation assays, cells were treated with IC50 concentrations of each compound. Adherent and floating cells were harvested at the same tube and pelleted by centrifugation at 300 g for 5 minutes and stained. Data acquisition of these two fractions put together was performed on a FACSCalibur flow cytometer using CellQuest software and analysed using the FloJo Software. Expression level of CD44 and CD24 in treated and control MCF-7 or MDA-MB-231 cells was measured after 24 h of treatment.

[8] = system: MDA-MB-231 cells; assay: CD44+/CD24- expression analysis, MDA-MB-231; format: cell-based, human; details: 24 h; for CD44-/CD24- subpopulation, MDA-MB-231 (mean ± SEM): 4m 1.0 mM, 4bt 0.8 mM, 4p 0.4 mM, 4bc 1.0 mM, 4x 0.8 mM, monastrol 1.0 mM; for CD44+/CD24+ subpopulation, MDA-MB-231 (mean ± SEM): control 1.507 ± 0.47
Procedure: as §3

[9] = system: MCF-7 cells; assay: Cell cycle analysis (PI), MCF-7; format: cell-based, human; details: 4m 1 mM, 4bt 0.8 mM, 4p 0.4 mM, 4bc 1.0 mM, 4x 0.8 mM
Procedure: For proliferation assays, cells were treated with IC50 concentrations of each compound. Adherent and floating cells were harvested at the same tube and pelleted by centrifugation at 300 g for 5 minutes and stained. Data acquisition of these two fractions put together was performed on a FACSCalibur flow cytometer using CellQuest software and analysed using the FloJo Software. Control and DHPM-treated cells were harvested at 24, 48 and 72 h, resuspended in ice-cold PBS and fixed with 70% ethanol on ice. Cells were then washed with PBS, harvested and incubated with propidium iodide solution (0.1% Triton X-100, 10 μg/mL propidium iodide, 100 μg/mL DNase free RNase) for 10 min at 37°C. For analysis of cell populations in each cell cycle phase, the sub-G1 picks were excluded and the plots were generated by cell cycle platform data analysis by the FlowJo Software.

[10] = system: MCF-7 cells; assay: Morphological alterations under inverted light microscope, MCF-7; format: cell-based, human; details: 72 h, maximum non-cytotoxic concentration to normal cells
Procedure: Figure 2 DHPM derivatives cause severe morphological alterations on breast cancer cells. MCF-7 and MDA-MB-231 cells were treated with the maximum non-cytotoxic concentration to normal cells for 72 h and morphological alterations analyzed under an inverted light microscope. Cells with elongated morphology, adherent to the surface and normal size are shown by arrows. Cells with size reduction, absence of focal adhesion points, rounded morphology and detached from the surface where they had been seeded are shown by arrowheads.

[11] = system: HUVEC cells; assay: HUVEC tube formation assay; format: cell-based, human; details: 11 h; 30 μM, IC50 or 300 μM, mainly 300 μM
Procedure: The anti-angiogenic potential of DHPMs was tested using an in vitro Angiogenesis Assay Kit according to the manufacturer’s instructions. […] These plates were incubated for 11 hours at 37°C, in 5% CO2. Wells were subsequently photographed using an inverted light microscope at 20x magnification and tube formation analyzed. Seven fields per group of 3 independent experiments were quantified by pattern recognition according to manufacturer’s instructions.

[12] = all concentrations tested 100 μM – 1.00 mM, 72 h
[13] = MCF-7, 24 h, 4m 1.0 mM, 4bt 0.8 mM, 4p 0.4 mM, 4bc 1.0 mM, 4x 0.8 mM

Row | Structure (SMILES) | Monoastral Spindle (%) 24 h [4, 13] [%] | Bipolar Spindle (%) 24 h ([4]; MCF-7, 24 h) [%] | Bipolar Spindle (%) 48 h [4] [%] | Monoastral Spindle (%) 48 h [4] [%] | CD44-/CD24- subpopulation, MCF-7 (mean ± SEM) [7] [%] | CD44+/CD24+ subpopulation, MCF-7 (mean ± SEM) [7] [%] | CD44-/CD24+ subpopulation, MCF-7 (mean ± SEM) [7] [%] | CD44+/CD24- subpopulation, MCF-7 (mean ± SEM) [7] [%] | CD44-/CD24- subpopulation, MDA-MB-231 (mean ± SEM) [8] [%] | CD44-/CD24+ subpopulation, MDA-MB-231 (mean ± SEM) ([8]; concentrations as E32) [%] | CD44+/CD24+ subpopulation, MDA-MB-231 (mean ± SEM) ([8]; concentrations as E32) [%] | also measured
1 | CC1(C)CC(=O)C2=C(C1)NC(=S)NC2c1cccc(O)c1 (stereo not shown) [Compound 4bt, Dimethylenastron] | 99.35 | 0.65 | 20 | 80 | 3.09 ± 0.46 | 61.97 ± 19.91 | 34.92 ± 19.45 | 0.005 ± 0.005 | 0.01 ± 0.00 | 0.0 ± 0.0 | 52.14 ± 10.60 | IC50 ([1]; MCF7, 72 h): 127 µM; Effect on cell viability, MCF-7 [1, 12]: significant decrease in cell viability; IC50 ([2]; MDA-MB-231, 72 h): 17.9 µM; Effect on cell viability, MDA-MB-231 [2, 12]: significant decrease in cell viability; Maximum non-cytotoxic concentration to normal cells ([3]; fibroblasts, 72 h treatment, MTT): 0.8 mM; Mitotic spindle / microtubule organization (α-tubulin immunostaining) [4, 13]: caused monoastral spindle formation; Cell death by apoptosis, % of MCF-7 cell population [5]: 39%; Cell death by apoptosis, % of MDA-MB-231 cell population [6]: 83%; Cell cycle effect, MCF-7, 48 h [9]: decrease of cells in G2/M and an increase of cells in S phase; Morphological alterations, MCF-7 [10]: produced the same results; HUVEC tube formation (pattern recognition / morphology) [11]: more pronounced anti-angiogenic morphological aspect
2 | CCOC(=O)C1=C(C)NC(=S)NC1c1cccc(O)c1 (stereo not shown) [Monastrol, reference compound] | 97.66 | 2.33 | 8 | 92 | 1.64 ± 0.43 | 29.53 ± 5.30 | 68.56 ± 5.93 | 0.2400 ± 0.20 | 0.00 ± 0.003 | 0.007 ± 0.003 | 15.56 ± 6.96 | IC50 ([1]; MCF7, 72 h treatment, MTT): 110 µM; IC50 ([2]; MDA-MB-231, 72 h treatment, MTT): 114 µM; Maximum non-cytotoxic concentration to normal cells ([3]; human, 72 h): 1.0 mM; CD44+/CD24- subpopulation, MDA-MB-231 (mean ± SEM) ([8]; concentrations as E32, untreated control 98.45 ± 0.47): 84.41 ± 6.97%
